Results published in US9156837B2, “Heterocyclic compound” (Takeda Pharmaceutical Company Limited, priority 2011, dated 2015).

Experiments:
[1] = tested on: CD4 positive naive T cells (differentiation into Th17 cells); assay: Mouse Th17 cell differentiation induction test; format: cell-based; settings: 96 h; test compound 10 μM; BALB/c mouse CD4 positive naive T cells; 4 days; ELISA; read-out: inhibitory rate (IL-17A in culture supernatant, Th17 differentiation)
Experimental: CD4 positive naive T cells were collected from the spleen cells of BALB/c mice (female, 8-11w) using CD4+CD62L+ T Cell Isolation kit II (Miltenyi Biotec). The CD4 positive naive T cells were plated in a 96 well plate (3×10^5 cells/well), stimulated (37° C. for culture) with anti-mouse CD3ε antibody (10 μg/mL, solid phase) and anti-CD28 antibody (5 μg/mL) for 4 days in the presence of anti-IFN-γ antibody, anti-IL-4 antibody, anti-IL-2 antibody, IL-6, TGF-β and IL-23 to allow for differentiation into Th17 cells. The compound was dissolved in DMSO and then added. The cells were cultured under these conditions for 4 days, the concentration of IL-17A in the culture supernatant obtained by centrifugation was measured by ELISA, and differentiation of the Th17 cells was evaluated.

RORγt [2] = biological target: T1, RORγt (Homo sapiens, UniProt P51449); assay: Cofactor recruitment test (Alpha Screen, biotinylated SRC-1 peptide); format: biochemical; settings: test compound 1 μM, RORγt and biotinylated SRC-1 peptide, read-out: signal value inhibitory rate
T1 sequence (P51449 1-497 isoform P51449-2): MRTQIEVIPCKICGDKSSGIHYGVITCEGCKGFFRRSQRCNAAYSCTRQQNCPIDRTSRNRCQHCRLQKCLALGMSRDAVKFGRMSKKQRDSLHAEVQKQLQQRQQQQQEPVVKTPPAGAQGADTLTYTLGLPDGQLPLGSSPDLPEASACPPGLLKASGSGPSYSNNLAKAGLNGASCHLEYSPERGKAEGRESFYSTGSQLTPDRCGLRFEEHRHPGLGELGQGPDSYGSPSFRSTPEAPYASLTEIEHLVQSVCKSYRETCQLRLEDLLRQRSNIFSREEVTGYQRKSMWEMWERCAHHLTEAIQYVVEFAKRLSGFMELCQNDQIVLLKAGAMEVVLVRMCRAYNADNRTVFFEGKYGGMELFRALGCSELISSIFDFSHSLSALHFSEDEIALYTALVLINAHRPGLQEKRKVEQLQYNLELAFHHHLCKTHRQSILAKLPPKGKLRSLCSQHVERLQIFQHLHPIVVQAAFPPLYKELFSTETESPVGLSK
Experimental: Cofactor recruitment test was performed by Alpha Screen (Histidine Detection Kit, PerkinElmer) method. First, a test compound was diluted with an assay buffer (50 mM Tris-HCl (pH 7.5), 50 mM KCl, 1 mM DTT, 0.1% BSA) and added to a 384 well plate by 5 μL. Then, RORγt diluted with an assay buffer to 125 nM was added by 10 μL each, after which solutions of 25 nM biotinylated SRC-1 peptide (biotin-[…]), 12.5 μg/mL acceptor beads and 12.5 μg/mL donor beads prepared with the assay buffer were added by 10 μL each. The mixture was stood in a dark place for 1 hr, and the signal value was measured by Envision (PerkinElmer).

RORγt [3] = biological target: T1, RORγt; assay: RORγt binding test (TR-FRET, fluorescent-labeled cholesterol); settings: test compound 1 μM, histidine-tagged RORγt, read-out: binding inhibitory rate of fluorescent-labeled cholesterol to RORγt
Experimental: The binding activity of the test compound to RORγt was measured by a time resolved fluorescence resonance energy transfer method (TR-FRET) utilizing histidine-tagged RORγt, fluorescent-labeled cholesterol (BODIPY-cholesterol, AVIVA), and terbium-labeled anti-histidine tag antibody (Invitrogen). First, a test compound diluted with an assay buffer (20 mM Tris-HCl (pH 7.5), 100 mM NaCl, 1 mM DTT, 0.1% BSA) was added to a 384 well plate by 3 μL. Then, RORγt diluted with an assay buffer to 240 nM was added by 3 μL, after which fluorescent-labeled cholesterol diluted with the assay buffer to 12 μM was added by 3 μL, and the mixture was stood at room temperature for 20 min. Thereafter, a terbium-labeled anti-histidine tag antibody diluted with the assay buffer to 8 nM was added by 3 μL. The mixture was stood at room temperature for 20 min, and fluorescence intensity (excitation wavelength 320 nm, fluorescence wavelength 520 nm, delay time 100 microseconds) was measured by Envision (PerkinElmer).
The results (binding inhibitory rate of fluorescent-labeled cholesterol to RORγt at test compound 1 μM) measured by the above-mentioned method are shown in Table 2.

[4] = tested on: Peripheral blood mononuclear cells (PBMC); assay: Human PBMC IL17 production test; format: cell-based; settings: 72 h; test compound 10 μM; human PBMC stimulated by anti-CD3/CD28 Dynabeads; 3 days; ELISA; read-out: inhibitory rate (IL-17A in culture supernatant, IL-17 production)
Experimental: Peripheral blood mononuclear cells (PBMC) collected from human peripheral blood by a density gradient centrifugation method were stimulated by Dynabeads (registered trade mark; anti-CD3/CD28 antibody) and cultured at 37° C. for 3 days. The compound was dissolved in DMSO and then added. After culture for 3 days under such conditions, the concentration of IL-17A in the culture supernatant obtained by centrifugation was measured by ELISA, and the activity of the compound on IL-17 production was evaluated.

RORγt [5] = biological target: T1, RORγt; assay: Jurkat reporter test (human IL-17 ROR response element luciferase); format: cell-based; settings: test compound 3 μM; Jurkat cells transfected with IL-17 ROR response element luciferase reporter and RORγt vector; cultured overnight; read-out: luminescence level inhibitory rate
Experimental: The Jurkat cells used for the reporter test were cultured in a culture medium (RPMI (Invitrogen), 10% FCS (AusGeneX), 100 U/mL penicillin, 100 μg/mL streptomycin). On the day of the test, 4×10^7 cells were recovered by a centrifugal operation (1000 rpm, 5 min.) and suspended in PBS (phosphate buffered saline) (Invitrogen). Thereafter, the cells were recovered again by a centrifugal operation, and suspended in 2 mL of R buffer (NEON transfection kit, Invitrogen). Then, a reporter vector 53 μg wherein a human IL-17 ROR response element was inserted into the upstream of luciferase of pGL 4.28 (Promega), and a vector (27 μg) wherein RORγt sequence was inserted into the downstream of CMV promoter were added to the cell suspension. Gene transfer was performed by Electroporation apparatus (NEON, Invitrogen) under the conditions of pulse voltage 1350 V, interval 10 milliseconds, number of times 3. The cells after gene transfer were suspended in 40 mL of a reaction medium (RPMI, 10% Lipid reduced FCS (HyClone), 10 mM HEPES (pH 7.5), 100 U/mL penicillin, 100 μg/mL streptomycin, 5 μM lovastatin), and plated in a 96 well plate by 90 μL. A test compound diluted with the reaction medium was added by 10 μL, and the cells were cultured overnight in an incubator. Bright-Glo (Promega) was added by 100 μL, and the mixture was stirred at room temperature for 10 min, and the luminescence level was measured by Envision (PerkinElmer).
The results (luminescence level inhibitory rate at test compound 3 μM) measured by the above-mentioned method are shown in Table 4.

[6] = tested on: CD4 positive naive T cells (differentiation into Th17 cells); assay: Human Th17 cell differentiation induction test; format: cell-based; settings: 144 h, test compound 10 μM, 6 days, ELISA, read-out: inhibitory rate (IL-17A in culture supernatant, Th17 differentiation)
Experimental: Using peripheral blood mononuclear cells (PBMC) collected from human peripheral blood by a density gradient centrifugation method, CD4 positive naive T cells were collected. The CD4 positive naive T cells were plated in a 96 well plate (2×10^4 cells/well), and stimulated (37° C. for culture) with anti-CD3/28Ab Dynabeads for 6 days in the presence of IL-1β, IL-6, IL-23, TGFβ, anti-IFNγ Ab, anti-IL-4 Ab to allow for differentiation into Th17 cells. The compound was dissolved in DMSO and then added. After culture for 6 days, the concentration of IL-17A in the culture supernatant obtained by centrifugation was measured by ELISA, and differentiation of the Th17 cells was evaluated.

| SMILES | inhibition at 10 µM [1] [%] | inhibition at 1 µM (RORγt [2]) [%] | inhibition at 1 µM (RORγt [3]) [%] | inhibition at 10 µM [4] [%] | inhibition at 3 µM (RORγt [5]) [%] | inhibition at 10 µM [6] [%] |
| --- | --- | --- | --- | --- | --- | --- |
| CC(C)(C)n1ncc(-c2nc(CC(=O)NCC3CCOCC3)cs2)c1-c1cc2ccccc2s1 [Example 150, 2-{2-[5-(1-benzothiophen-2-yl)-1-tert-butyl-1H-pyrazol-4-yl]-1,3-thiazol-4-yl}-N-(tetrahydro-2H-pyran-4-ylmethyl)acetamide] | 97.7 | 99.3 | 98.7 | 92 | 98.4 | – |
| CC(C)(C)n1ncc(-c2nc(CC(=O)NCC3CCOCC3)cs2)c1-c1ccc(Cl)cc1 [Example 128, 2-{2-[1-tert-butyl-5-(4-chlorophenyl)-1H-pyrazol-4-yl]-1,3-thiazol-4-yl}-N-(tetrahydro-2H-pyran-4-ylmethyl)acetamide] | 97.7 | 101 | 97.8 | – | 97.1 | – |
| CC(C)(C)n1ncc(-c2nc(CC(=O)NCC3CCOCC3)cs2)c1-c1ccc(F)cc1 [Example 14, 2-{2-[1-tert-butyl-5-(4-fluorophenyl)-1H-pyrazol-4-yl]-1,3-thiazol-4-yl}-N-(tetrahydro-2H-pyran-4-ylmethyl)acetamide] | 77 | 109 | 92 | – | 81 | – |
| COc1ccc(-c2c(-c3nc(CC(=O)NCC4CCOCC4)cs3)cnn2C(C)(C)C)cc1F [Example 152, 2-{2-[1-tert-butyl-5-(3-fluoro-4-methoxyphenyl)-1H-pyrazol-4-yl]-1,3-thiazol-4-yl}-N-(tetrahydro-2H-pyran-4-ylmethyl)acetamide] | 91.2 | 95.4 | 95.9 | 92 | 96 | – |
| CCCN(Cc1ccccc1)C(=O)Cc1csc(-c2cnn(C(C)(C)C)c2-c2ccc(F)cc2)n1 [Example 97, N-benzyl-2-{2-[1-tert-butyl-5-(4-fluorophenyl)-1H-pyrazol-4-yl]-1,3-thiazol-4-yl}-N-propylacetamide] | 95 | 98.8 | 87.3 | – | 84.1 | – |
| O=C(Cc1csc(-c2cnn(C3CCCCC3)c2-c2ccc(F)cc2)n1)NCC1CCOCC1 [Example 51, 2-{2-[1-cyclohexyl-5-(4-fluorophenyl)-1H-pyrazol-4-yl]-1,3-thiazol-4-yl}-N-(tetrahydro-2H-pyran-4-ylmethyl)acetamide] | 86 | 78.6 | 95.3 | – | 94.9 | – |
| CC(C)(C)n1ncc(-c2nc(CC(=O)NCC3CCOCC3)cs2)c1-c1ccc(C#N)cc1 [Example 43, 2-{2-[1-tert-butyl-5-(4-cyanophenyl)-1H-pyrazol-4-yl]-1,3-thiazol-4-yl}-N-(tetrahydro-2H-pyran-4-ylmethyl)acetamide] | 78.6 | 101 | 98.3 | – | 94.2 | – |
| CC(C)(C)n1ncc(-c2nc(CC(=O)NCc3cccnc3)cs2)c1-c1ccc(F)cc1 [Example 79, 2-{2-[1-tert-butyl-5-(4-fluorophenyl)-1H-pyrazol-4-yl]-1,3-thiazol-4-yl}-N-(pyridin-3-ylmethyl)acetamide] | 69 | 99.8 | 95.4 | – | 85.7 | – |
| CN(Cc1ccncc1)C(=O)Cc1csc(-c2cnn(C(C)(C)C)c2-c2ccc(F)cc2)n1 [Example 18, 2-{2-[1-tert-butyl-5-(4-fluorophenyl)-1H-pyrazol-4-yl]-1,3-thiazol-4-yl}-N-methyl-N-(pyridin-4-ylmethyl)acetamide] | 96.3 | 102 | 96.1 | – | 87.1 | – |
| COc1ccc(-c2c(-c3nc(CC(=O)NCC4CCOCC4)cs3)cnn2C(C)(C)C)cc1 [Example 39, 2-{2-[1-tert-butyl-5-(4-methoxyphenyl)-1H-pyrazol-4-yl]-1,3-thiazol-4-yl}-N-(tetrahydro-2H-pyran-4-ylmethyl)acetamide] | 95 | 101 | 98.7 | 91.3 | 101 | 100 |
| CC(C)(C)n1ncc(-c2nc(CC(=O)NCC3CCOCC3)cs2)c1-c1ccccc1 [Example 41] | 92.6 | 101 | 94.6 | – | 82.1 | – |
| CC(C)(C)n1ncc(-c2nc(CC(=O)NCc3ccc(-n4ccnc4)cc3)cs2)c1-c1ccc(F)cc1 [Example 170, 2-{2-[1-tert-butyl-5-(4-fluorophenyl)-1H-pyrazol-4-yl]-1,3-thiazol-4-yl}-N-[4-(1H-imidazol-1-yl)benzyl]acetamide] | – | 100 | 86.5 | – | 94.4 | – |
